Experimental data published in patent publication EP4603105A1, “PHARMACEUTICAL COMPOSITION CONTAINING CYCLIC COMPOUND HAVING SELECTIVE KRAS INHIBITORY EFFECT AGAINST HRAS AND NRAS” (CHUGAI SEIYAKU KABUSHIKI KAISHA, priority 2022, dated 2024).
Where two headings read alike, the source gives them in different places.

Experiments:
[1] = system: human lung cancer strain NCI-H441; test: NCI-H441 cell proliferation inhibitory activity (CellTiter-Glo, 4 days); type: cell-based; details: read-out: NCl-H441 IC50
Outline: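 Proliferation was scored by […] measured after the reagent was added to cultures kept at 37°C in 5% carbon dioxide.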

[2] = target: GDP-bound NRAS wild-type protein (Homo sapiens, UniProt P01111); test: Binding to NRAS by surface plasmon resonance (SPR), KD and KD ratio to KRAS
Sequence of GDP-bound NRAS wild-type protein (P01111 whole entry): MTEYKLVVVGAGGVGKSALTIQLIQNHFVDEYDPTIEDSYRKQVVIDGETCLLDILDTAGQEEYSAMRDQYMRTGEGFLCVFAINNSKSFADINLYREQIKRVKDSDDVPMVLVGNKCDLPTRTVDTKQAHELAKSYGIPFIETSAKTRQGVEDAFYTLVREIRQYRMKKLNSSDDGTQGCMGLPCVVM
Outline: (§1)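 Compound binding is evaluated by SPR single-cycle kinetics, with concentrations added intermittently from low to high for 75 s each. Target surfaces carry GDP-loaded biotinylated Avi-RAS at about 100–300 RU, regenerated after each cycle; temperature 30°C. A 1:1 binding model gives KD.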

[3] = target: GDP-bound KRAS wild-type protein (Homo sapiens, UniProt P01116); test: Binding to KRAS by surface plasmon resonance (SPR), dissociation constant KD
Sequence of GDP-bound KRAS wild-type protein (P01116 1-188 isoform P01116-2): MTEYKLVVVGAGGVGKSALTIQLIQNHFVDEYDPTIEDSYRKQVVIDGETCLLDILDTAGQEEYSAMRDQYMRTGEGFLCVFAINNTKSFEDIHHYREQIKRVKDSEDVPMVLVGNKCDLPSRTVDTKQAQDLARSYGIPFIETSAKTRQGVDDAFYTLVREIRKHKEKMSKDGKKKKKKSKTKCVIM
Outline: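 Biotinylated GDP-bound RAS was captured at about 100–300 RU. Running buffer: HBS pH 7.4, 10 mM MgCl2, 10 µM GDP, 1 mM DTT, 0.01% Tween 20, 4% DMSO.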

HRAS wild-type protein = HRAS wild-type protein (Homo sapiens, UniProt P01112); test: Binding to HRAS by surface plasmon resonance (SPR), KD and KD ratio to KRAS
Sequence of HRAS wild-type protein (P01112 whole entry): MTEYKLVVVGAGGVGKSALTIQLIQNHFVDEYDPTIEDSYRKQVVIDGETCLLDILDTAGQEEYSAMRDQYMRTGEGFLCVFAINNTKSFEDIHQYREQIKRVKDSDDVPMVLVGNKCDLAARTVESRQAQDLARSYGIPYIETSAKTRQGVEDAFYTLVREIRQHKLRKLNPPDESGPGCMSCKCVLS
Outline: as §1

[4] = 50% proliferation inhibitory concentration, four days
[5] = ratio of KD with respect to GDP-bound NRAS wild-type protein to KD with respect to KRAS
[6] = Single Cycle Kinetics, 1:1 binding model
[7] = ratio of KD with respect to HRAS wild-type protein to KD with respect to KRAS
[8] = ratio of KD for GDP-bound NRAS wild-type protein to KD for KRAS
[9] = ratio of KD for HRAS wild-type protein to KD for KRAS

Row | IC50 [1, 4] [nM] | Kd [3, 6] [nM] | IC50 ([1]; NCI-H441 cells, 4 days) [nM] | Kd ([3]; 1:1 binding model) [nM] | Kd ([3]; Single Cycle Kinetics) [nM] | Compound | NRAS /KRAS [2, 5] | HRAS /KRAS (HRAS wild-type protein; [7]) | NRAS /KRAS [2, 8] | HRAS /KRAS (HRAS wild-type protein; [9])
1 | 4.4 | 0.074 | – | – | – | CCO[C@@H]1C[C@H]2C(=O)NC3(CCC3)C(=O)N(C)[C@@H](C3CCCC3)C(=O)N(C)[C@H](C(=O)N(C)C)CC(=O)N(C)[C@@H](CC(C)C)C(=O)N[C@@H]([C@@H](C)CC)C(=O)N(C)CC(=O)N(C)[C@H]3C/C=C\CCN(C3=O)[C@@H](Cc3ccc(C)cc3)C(=O)N(C)CC(=O)N[C@@H](CCc3cc(F)c(C(F)(F)F)c(F)c3)C(=O)N2C1 [PP1414] | A (a compound having 10 or more and less than 20 is denoted as A) | B (a compound having 3 or more and less than 10 is denoted as B) | – | –
2 | – | – | 87.2 | 1.6 | – | CCOC[C@H]1C(=O)N[C@@H]([C@@H](C)CC)C(=O)N(C)CC(=O)N(C)[C@H]2C/C=C\CCN(C2=O)[C@@H](CC2CCC(F)(F)CC2)C(=O)N(C)CC(=O)N[C@@H](CCc2cc(F)c(C(F)(F)F)c(F)c2)C(=O)N2C[C@@H](C)C[C@H]2C(=O)NC2(CC(C)(C)C2)C(=O)N(C)[C@@H](C(CC)CC)C(=O)N(C)[C@H](C(=O)N(C)C)CC(=O)N1C [PP2462] | – | – | A (a compound having 10 or more and less than 20 is denoted as A) | A (a compound having 10 or more and less than 20 is denoted as A)
3 | 15.2 | 0.096 | – | – | – | C=CC[C@H]1C(=O)N[C@@H]([C@@H](C)CC)C(=O)N(C)CC(=O)N(C)[C@H]2C/C=C\CCN(C2=O)[C@@H](CC2CCC(F)(F)CC2)C(=O)N(C)CC(=O)N[C@@H](CCc2cc(F)c(C(F)(F)F)c(F)c2)C(=O)N2C[C@H](OCC)C[C@H]2C(=O)NC2(CCC2)C(=O)N(C)[C@@H](C2CCCC2)C(=O)N(C)[C@H](C(=O)N(C)C)CC(=O)N1C [PP1454] | A (a compound having 10 or more and less than 20 is denoted as A) | A (a compound having 10 or more and less than 20 is denoted as A) | – | –
4 | 117 | 1.2 | – | – | – | CCO[C@@H]1C[C@H]2C(=O)NC3(CCC3)C(=O)N(C)[C@@H](C(CC)CC)C(=O)N(C)[C@H](C(=O)N(C)C)CC(=O)N(C)[C@@H](CC)C(=O)N[C@@H]([C@@H](C)CC)C(=O)N(C)CC(=O)N(C)[C@H]3C/C=C\CCN(C3=O)[C@@H](Cc3ccc(C(F)(F)F)cc3)C(=O)N(C)CC(=O)N[C@@H](CCc3ccc4sccc4c3)C(=O)N2C1 [PP1223] | AA (a compound having 20 or more is denoted as AA) | A (a compound having 10 or more and less than 20 is denoted as A) | – | –
5 | 12.8 | 0.076 | – | – | – | CCCCCC[C@H]1C(=O)N[C@@H]([C@@H](C)CC)C(=O)N(C)CC(=O)N(C)[C@H]2C/C=C\CCN(C2=O)[C@@H](Cc2ccc(C(F)(F)F)cc2)C(=O)N(C)CC(=O)N[C@@H](CCc2cc(F)c(C(F)(F)F)c(F)c2)C(=O)N2C[C@H](OCC)C[C@H]2C(=O)NC2(CCC2)C(=O)N(C)[C@@H](C2CCCC2)C(=O)N(C)[C@H](C(=O)N(C)C)CC(=O)N1C [PP1242] | A (a compound having 10 or more and less than 20 is denoted as A) | A (a compound having 10 or more and less than 20 is denoted as A) | – | –
6 | 19.2 | 0.2 | – | – | – | CCO[C@@H]1C[C@H]2C(=O)NC3(CCC3)C(=O)N(C)[C@@H](C(CC)CC)C(=O)N(C)[C@H](C(=O)N(C)C)CC(=O)N(C)[C@@H](CC)C(=O)N[C@@H]([C@@H](C)CC)C(=O)N(C)CC(=O)N(C)[C@H]3C/C=C\CCN(C3=O)[C@@H](Cc3ccc(C(F)(F)F)cc3)C(=O)N(C)CC(=O)N[C@@H](CCc3cc(F)c(C(F)(F)F)c(F)c3)C(=O)N2C1 [PP1200] | AA (a compound having 20 or more is denoted as AA) | A (a compound having 10 or more and less than 20 is denoted as A) | – | –
7 | – | – | 14.8 | – | 0.43 | CCC[C@H]1C(=O)N[C@@H]([C@@H](C)CC)C(=O)N2CCC[C@H]2C(=O)N(C)[C@H]2C/C=C\CCN(C2=O)[C@@H](Cc2ccc(C(F)(F)F)cc2)C(=O)N(C)CC(=O)N[C@@H](CCc2cc(F)c(C(F)(F)F)c(F)c2)C(=O)N2C[C@H](OCC)C[C@H]2C(=O)NC2(CCCC2)C(=O)N(C)[C@@H](C2CCCC2)C(=O)N(C)[C@H](C(=O)N(C)C)CC(=O)N1C [PP3474] | – | – | A (a compound having 10 or more and less than 20 is denoted as A) | A (a compound having 10 or more and less than 20 is denoted as A)
8 | – | – | 10.6 | 0.092 | – | CCCOC[C@H]1C(=O)N[C@@H]([C@@H](C)CC)C(=O)N(C)CC(=O)N(C)[C@H]2C/C=C\CCN(C2=O)[C@@H](Cc2ccc(C)cc2)C(=O)N(C)CC(=O)N[C@@H](CCc2ccc(C(F)(F)F)c(Cl)c2)C(=O)N2C[C@H](OCC)C[C@H]2C(=O)NC2(CC(C)(C)C2)C(=O)N(C)[C@@H](C2CCCC2)C(=O)N(C)[C@H](C(=O)N(C)C)CC(=O)N1C [PP2402] | – | – | A (a compound having 10 or more and less than 20 is denoted as A) | A (a compound having 10 or more and less than 20 is denoted as A)
9 | 51.2 | 0.3 | – | – | – | CCCCCC[C@H]1C(=O)N[C@@H]([C@@H](C)CC)C(=O)N(C)CC(=O)N(C)[C@H]2C/C=C\CCN(C2=O)[C@@H](Cc2ccc(C(F)(F)F)cc2)C(=O)N(C)CC(=O)N[C@@H](CCc2ccc(Cl)c(Cl)c2)C(=O)N2C[C@H](OCC)C[C@H]2C(=O)NC2(CCC2)C(=O)N(C)[C@@H](C2CCCC2)C(=O)N(C)[C@H](C(=O)N(C)C)CC(=O)N1C [PP1252] | AA (a compound having 20 or more is denoted as AA) | A (a compound having 10 or more and less than 20 is denoted as A) | – | –
10 | 16.5 | 0.12 | – | – | – | CC[C@H](C)[C@@H]1NC(=O)[C@H](CC)N(C)C(=O)C[C@@H](C(=O)N(C)C)N(C)C(=O)[C@H](C2CCCC2)N(C)C(=O)C2(CCCC2)NC(=O)[C@@H]2CCCN2C(=O)[C@H](CCc2cc(F)c(C(F)(F)F)c(F)c2)NC(=O)CN(C)C(=O)[C@H](Cc2ccc(C(F)(F)F)cc2)N2CC/C=C\C[C@@H](C2=O)N(C)C(=O)CN(C)C1=O [PP1273] | A (a compound having 10 or more and less than 20 is denoted as A) | B (a compound having 3 or more and less than 10 is denoted as B) | – | –
11 | 20.8 | 0.066 | – | – | – | CCO[C@@H]1C[C@H]2C(=O)NC3(CCCC3)C(=O)N(C)[C@@H](C3CCCC3)C(=O)N(C)[C@H](C(=O)N(C)C)CC(=O)N(C)[C@@H](CC)C(=O)N[C@@H]([C@@H](C)CC)C(=O)N(C)CC(=O)N(C)[C@H]3C/C=C\CCN(C3=O)[C@@H](Cc3ccc(C(F)(F)F)cc3)C(=O)N(C)CC(=O)N[C@@H](CCc3cc(F)c(C(F)(F)F)c(F)c3)C(=O)N2C1 [PP1276] | A (a compound having 10 or more and less than 20 is denoted as A) | B (a compound having 3 or more and less than 10 is denoted as B) | – | –
12 | – | – | 49.8 | – | 1.2 | C#CC[C@H]1C(=O)N[C@@H]([C@@H](C)CC)C(=O)N2CCCC[C@H]2C(=O)N(C)[C@H]2C/C=C\CCN(C2=O)[C@@H](Cc2ccc(C(F)(F)F)cc2)C(=O)N(C)CC(=O)N[C@@H](CCc2cc(F)c(C(F)(F)F)c(F)c2)C(=O)N2C[C@H](OCC)C[C@H]2C(=O)N(C)C2(CCC2)C(=O)N(C)[C@@H](C2CCCC2)C(=O)N(C)[C@H](C(=O)N(C)C)CC(=O)N1C [PP3259] | – | – | A (a compound having 10 or more and less than 20 is denoted as A) | B (a compound having 3 or more and less than 10 is denoted as B)
13 | – | – | 105 | – | 4 | CCC[C@H]1C(=O)N[C@@H]([C@@H](C)CC)C(=O)N2CCCCC[C@H]2C(=O)N(C)[C@H]2C/C=C\CCN(C2=O)[C@@H](Cc2ccc(C(F)(F)F)cc2)C(=O)N(C)CC(=O)N[C@@H](CCc2ccc(C(F)(F)F)c(OC)c2)C(=O)N2C[C@H](OCC)C[C@H]2C(=O)N(C)C2(CCC2)C(=O)N(C)[C@@H](C2CCCC2)C(=O)N(C)[C@H](C(=O)N(C)C)CC(=O)N1C [PP3276] | – | – | A (a compound having 10 or more and less than 20 is denoted as A) | A (a compound having 10 or more and less than 20 is denoted as A)
14 | – | – | 15 | – | 0.11 | CCO[C@@H]1C[C@H]2C(=O)NC3(CC(C)(C)C3)C(=O)N(C)[C@@H](C3CCCC3)C(=O)N(C)[C@H](C(=O)N(C)C)CC(=O)N[C@@H](CC(C)C)C(=O)N[C@@H]([C@@H](C)CC)C(=O)N(C)CC(=O)N(C)[C@H]3C/C=C\CCN(C3=O)[C@@H](Cc3ccc(C(F)(F)F)cc3)C(=O)N(C)CC(=O)N[C@@H](CCc3cc(F)c(C(F)(F)F)c(F)c3)C(=O)N2C1 [PP3455] | – | – | A (a compound having 10 or more and less than 20 is denoted as A) | A (a compound having 10 or more and less than 20 is denoted as A)
15 | – | – | 4.7 | – | 1.5 | CCC[C@H]1C(=O)N[C@@H]([C@@H](C)CC)C(=O)N(C)CC(=O)N(C)[C@H]2C/C=C\CCN(C2=O)[C@@H](Cc2ccc(C(F)(F)F)cc2)C(=O)N(C)CC(=O)N[C@@H](CCc2ccc(C(F)(F)F)c(OC)c2)C(=O)N2CC3(CC3)C[C@H]2C(=O)N(C)C2(CCC2)C(=O)N(C)[C@@H](C(CC)CC)C(=O)N(C)[C@H](C(=O)N(C)C)CC(=O)N1C [PP3361] | – | – | A (a compound having 10 or more and less than 20 is denoted as A) | A (a compound having 10 or more and less than 20 is denoted as A)
